The text below walks through data of patent US8653096B2, “Chemokine receptor antagonists and methods of use thereof” (Millennium Pharmaceuticals, Inc., priority 2001, dated 2014).

Molecules are shown by their SMILES.

One test concerns the target T1, RANTES/MIP-1α chemokine receptor (CCR1) in THP-1 cell membranes (Homo sapiens, UniProt P32246).
T1 construct: Membranes were prepared from THP-1 cells (ATCC #TIB202); host or cells: THP-1 cells (membrane preparation)
T1 sequence (P32246 1-355): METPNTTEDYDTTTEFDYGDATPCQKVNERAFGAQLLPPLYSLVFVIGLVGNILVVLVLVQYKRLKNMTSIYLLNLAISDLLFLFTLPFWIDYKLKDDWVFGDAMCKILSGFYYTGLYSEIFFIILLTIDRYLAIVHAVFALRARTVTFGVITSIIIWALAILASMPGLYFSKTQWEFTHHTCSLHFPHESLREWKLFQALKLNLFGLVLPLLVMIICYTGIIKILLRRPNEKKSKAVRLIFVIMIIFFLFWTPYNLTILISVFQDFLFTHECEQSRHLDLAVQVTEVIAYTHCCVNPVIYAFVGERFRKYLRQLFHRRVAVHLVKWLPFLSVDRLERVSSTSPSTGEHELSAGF
The test is described as follows: Receptor binding assay: 125I-RANTES or 125I-MIP-1α binding to THP-1 cell membranes.
Details: not given
Turning to `CC(C)(O)c1ccc2c(c1)C(=CCCN1CCC(C#N)(Nc3ccc(Cl)cc3)CC1)c1cccnc1CO2` [Example 464, 4-(4-Chloro-phenylamino)-1-{3-[7-(1-hydroxy-1-methyl-ethyl)-11H-10-oxa-1-aza-dibenzo[a,d]cyclohepten-5-ylidene]-propyl}-piperidine-4-carbonitrile], the IC50 (commonly the concentration needed to halve the response being measured) was < 1000 nM.

As for `COC(=O)C1(Nc2ccc(Cl)cc2)CCN(CCC=C2c3cc(C(C)(C)O)ccc3OCc3ncccc32)CC1` [Example 465, 4-(4-Chloro-phenylamino)-1-{3-[7-(1-hydroxy-1-methyl-ethyl)-11H-10-oxa-1-aza-dibenzo[a,d]cyclohepten-5-ylidene]-propyl}-piperidine-4-carboxylic acid methyl ester], the IC50 was < 1000 nM.

`CC(C)(O)c1ccc2c(c1)C(=CCCN1CCC(Nc3ccc(Cl)cc3)(C(N)=O)CC1)c1cccnc1CO2` [Example 466, 4-(4-Chloro-phenylamino)-1-{3-[7-(1-hydroxy-1-methyl-ethyl)-11H-10-oxa-1-aza-dibenzo[a,d]cyclohepten-5-ylidene]-propyl}-piperidine-4-carboxylic acid amide]: the half-inhibitory concentration (IC50) is < 50000 nM.

The same test, now with this note: inhibitor concentration required for 50% inhibition of specific binding; 125I-RANTES or 125I-MIP-1α as ligand, THP-1 cell membranes; read-out: IC50.
As to `COC(=O)c1ccc2c(c1)C(=CCCN1CCC(O)(c3ccc(Cl)cc3)CC1)c1cccnc1CO2` [Example 273], the IC50 is < 1000 nM.

For `OC1(c2ccc(Cl)cc2)CCN(CCC=C2c3cc(CN4CCOCC4)ccc3OCc3ncccc32)CC1` [Example 278, 4-(4-Chlorophenyl)-1-[3-(5,11-dihydro-7-(4-morpholino)methyl[1]benzoxepino[2,3-b]pyridin-5-ylidene)propyl]piperidin-4-ol], the IC50 is < 1000 nM.

On to `OCCCc1ccc2c(c1)C(=CCCN1CCC(O)(c3ccc(Cl)cc3)CC1)c1cccnc1CO2` [Example 289, 4-(4-Chlorophenyl)-1-[3-(7-(1-(3-hydroxy)propyl)-5,11-dihydro[1]benzoxepino[2,3-b]pyridin-5-ylidene)propyl]piperidin-4-ol], for which the IC50 was < 1000 nM.

With `CCOC(=O)[C@H]1CCCN(NC(=O)c2ccc3c(c2)C(=CCCN2CCC(O)(c4ccc(Cl)cc4)CC2)c2cccnc2CO3)C1` [Example 422, 4-(4-Chlorophenyl)-1-[3-(5,11-dihydro-7-(S-3-ethoxycarbonyl-piperidine-1-yl)-carbamoyl-[1]benzoxepino[2,3-b]pyridin-5-ylidene)propyl]piperidine-4-ol], the IC50 was < 1000 nM.

`O=C(OCCN1CCOCC1)c1ccc2c(c1)C(=CCCN1CCC(O)(c3ccc(Cl)cc3)CC1)c1cccnc1CO2` [Example 430, 4-(4-Chlorophenyl)-1-[3-(5,11-dihydro-7-(2-morpholinoethyl-1-yl)-oxycarbonyl-[1]benzoxepino[2,3-b]pyridin-5-ylidene)propyl]piperidine-4-ol]: the concentration for half-maximal inhibition (IC50) was < 1000 nM.

Consider `CCN(CC)CCOC(=O)c1ccc2c(c1)C(=CCCN1CCC(O)(c3ccc(Cl)cc3)CC1)c1cccnc1CO2` [Example 431, 4-(4-Chlorophenyl)-1-[3-(5,11-dihydro-7-(2,2-diethylaminoethyl-1-yl)-oxycarbonyl-[1]benzoxepino[2,3-b]pyridin-5-ylidene)propyl]piperidine-4-ol], for which the IC50 is < 1000 nM.

For `CC(C)(C)C(=O)OCOC(=O)c1ccc2c(c1)C(=CCCN1CCC(O)(c3ccc(Cl)cc3)CC1)c1cccnc1CO2` [Example 432, 4-(4-Chlorophenyl)-1-[3-(5,11-dihydro-7-(1-2,2-dimethylpropionyl-oxymethyl)-oxycarbonyl-[1]benzoxepino[2,3-b]pyridin-5-ylidene)propyl]piperidine-4-ol], the IC50 was < 1000 nM.

Take `CC(C)(O)c1ccc2c(c1)C(=CCCN1CCC(C#N)(c3ccc(Cl)cc3)CC1)c1cccnc1CO2` [Example 456, 4-(4-Chloro-phenyl)-1-{3-[7-(1-hydroxy-1-methyl-ethyl)-11H-10-oxa-1-aza-dibenzo-[a,d]cyclohepten-5-ylidene]-propyl}-piperidine-4-carbonitrile]: the IC50 was < 1000 nM.

In the case of `CC(=O)C1(c2ccc(Cl)cc2)CCN(CCC=C2c3cc(C(C)(C)O)ccc3OCc3ncccc32)CC1` [Example 457, 1-(4-(4-Chloro-phenyl)-1-{3-[7-(1-hydroxy-1-methyl-ethyl)-11H-10-oxa-1-aza-dibenzo[a,d]cyclohepten-5-ylidene]-propyl}-piperidin-4-yl)-ethanone], the IC50 was < 1000 nM.

Turning to `COC(=O)C1(c2ccc(Cl)cc2)CCN(CCC=C2c3cc(C(C)(C)O)ccc3OCc3ncccc32)CC1` [Example 458, 4-(4-Chloro-phenyl)-1-{3-[7-(1-hydroxy-1-methyl-ethyl)-11H-10-oxa-1-aza-dibenzo[a,d]cyclohepten-5-ylidene]-propyl}-piperidine-4-carboxylic acid methyl ester], the IC50 was < 10000 nM.

In the case of `CC(C)(O)c1ccc2c(c1)C(=CCCN1CCC(C(=O)O)(c3ccc(Cl)cc3)CC1)c1cccnc1CO2` [Example 459, 4-(4-Chloro-phenyl)-1-{3-[7-(1-hydroxy-1-methyl-ethyl)-11H-10-oxa-1-aza-dibenzo[a,d]cyclohepten-5-ylidene]-propyl}-piperidine-4-carboxylic acid], the IC50 is < 10000 nM.

Regarding `CC(C)(O)c1ccc2c(c1)C(=CCCN1CCC(C(N)=O)(c3ccc(Cl)cc3)CC1)c1cccnc1CO2` [Example 460, 4-(4-Chloro-phenyl)-1-{3-[7-(1-hydroxy-1-methyl-ethyl)-11H-10-oxa-1-aza-dibenzo[a,d]cyclohepten-5-ylidene]-propyl}-piperidine-4-carboxylic acid amide], the concentration for half-maximal inhibition (IC50) is < 1000 nM.

Take `CC(C)(O)c1ccc2c(c1)C(=CCCN1CCC(CO)(c3ccc(Cl)cc3)CC1)c1cccnc1CO2` [Example 461, 2-(5-{3-[4-(4-Chloro-phenyl)-4-hydroxymethyl-piperidin-1-yl]-propylidene}-5,11-dihydro-10-oxa-1-aza-dibenzo[a,d]cyclohepten-7-yl)-propan-2-ol]: the IC50 is < 10000 nM.

As to `CC(O)C1(c2ccc(Cl)cc2)CCN(CCC=C2c3cc(C(C)(C)O)ccc3OCc3ncccc32)CC1` (centres unmarked) [Example 462, 2-(5-{3-[4-(4-chloro-phenyl)-4-(1-hydroxy-ethyl)-piperidin-1-yl]-propylidene}-5,11-dihydro-10-oxa-1-aza-dibenzo [a,d]cyclohepten-7-yl)-propan-2-ol], the IC50 was < 10000 nM.

Regarding `CC(C)(O)c1ccc2c(c1)C(=CCCN1CCC(c3ccc(Cl)cc3)(C(C)(C)O)CC1)c1cccnc1CO2` [Example 463, 2-(5-{3-[4-(4-Chloro-phenyl)-4-(1-hydroxy-1-methyl-ethyl)-piperidin-1-yl]-propylidene}-5,11-dihydro-10-oxa-1-aza-dibenzo[a,d]cyclohepten-7-yl)-propan-2-ol], the IC50 is < 10000 nM.

In the case of `CC(C)(O)c1ccc2c(c1)C(=CCCN1CCC(F)(c3ccc(Cl)cc3)CC1)c1cccnc1CO2` [Example 467, 2-(5-{3-[4-(4-Chloro-phenyl)-4-fluoro-piperidin-1-yl]-propylidene}-5,11-dihydro-10-oxa-1-aza-dibenzo[a,d]cyclohepten-7-yl)-propan-2-ol], the IC50 was < 1000 nM.

In the case of `CC(C)(O)c1ccc2c(c1)C(=CCCN1CCC(F)(c3ccc(Cl)cc3)C(O)C1)c1cccnc1CO2` (centres unmarked) [Example 468, 4-(4-Chloro-phenyl)-4-fluoro-1-{3-[7-(1-hydroxy-1-methyl-ethyl)-11H-10-oxa-1-aza-dibenzo[a,d]cyclohepten-5-ylidene]-propyl}-piperidin-3-ol], the IC50 was < 1000 nM.
